Article PMC8901753, “An ultrasensitive microfluidic approach reveals correlations between the physico-chemical and biological activity of experimental peptide antibiotics” (Scientific Reports, 2022)

Experiments:
[1] = tested on: E. coli BW25113 cells; experiment: Mother-machine microfluidics-microscopy single-cell assay; format: cell-based, Escherichia coli; details: for coefficient of variation (CV) in the cell lengths / Lmean 3h (mean cell length normalized to initial cell length) / cell division during peptide treatment / survival fraction (fraction of wells hosting dividing cells after peptide treatment and overnight LB) / increase in cell length on average before cell death: 10 μM peptide; for coefficient of variation (CV) in the cell lengths: 3 h time point, susceptible cells, 20 cells from 2 repeats (bienA9: 5 cells, 1 experiment); for Lmean 3h (mean cell length normalized to initial cell length): 3 h time-point, mean ± std. dev.; for Lmean 3h (mean cell length normalized to initial cell length) / increase in cell length on average before cell death: susceptible cells killed before dividing; for No. of non-dividing survivors at the end of the experiments: 10 M [sic] peptide, cells that did not divide and did not stain with propidium iodide, out of 305–323 initial cells; for cell division during peptide treatment: 3 h, measured per well; for survival fraction (fraction of wells hosting dividing cells after peptide treatment and overnight LB): continuous flow 3 h, then LB overnight (17–18 h), stationary phase cells, mean ± std. dev. over 2 biological repeats
Text: The “mother-machine” system (Fig. 1A) enables the physical confinement of individual bacteria in well-controlled microenvironments, where they can be sequentially exposed to nutrients, drugs or viability indicators and the responses studied using time-lapse microscopy[28]–[30]. This technology has been used extensively to study bacterial-drug interactions, using a range of conventional small-molecule antibiotics such as ampicillin, gentamicin, ciprofloxacin (amongst others)[28],[30]–[33], phages[34] as well as novel protein pseudocapsid based antibacterials. Briefly E. coli BW25113 cells were cultured overnight in Lysogeny Broth (LB) at 37 °C to stationary phase and injected into the mother-machine microfluidic device (see “Experimental section” and[28],[29],[31],[32]). We waited for the cells to populate the “wells” of the chip (Fig. 1), following which the trapped cells were challenged with a continuous flow of peptide (10 μM) for 3 h, with images taken hourly. After 3 h of treatment, the cells were provided with fresh LB to study survivors. Post overnight (O/N) LB treatment, dead staining was performed with propidium iodide (PI). Dead cells either lysed or took up PI and appeared bright under fluorescence illumination (Fig. 1B). […] However, the cells that were dividing at the end of the experiment were unambiguously alive. Therefore, we chose to use only these dividing cells in our quantitative analysis discussed below.
Thus, reaching a critical peptide length leads to increased antibacterial activity with the bienA peptides. […] For bienK10 and bienK11, the survival fractions were 56 ± 26% (204 wells, 305 cells) and 31 ± 18% (215 wells, 311 cells) respectively (Fig. 2B), markedly different from the bienA10 and bienA11 results (Fig. 2A). Thus for these bienK peptides, while some individual cells were killed by the peptides, a large number of other clonal relatives survived the exact same conditions, similar to the example shown in Fig. 1. […] Our results reveal important phenotypic variants seemingly oblivious to the effects of these polypeptide antibiotics that are able to grow and divide even during treatment, while their clonal relatives perish. We also observed similar trends when quantifying the cellular division rates in response to the peptides (Fig. 2C,D). […] Again, as with the survival fractions, this peptide length dependence was not observed for the cellular division rates with the bienK series (Fig. 2D).
The Escherichia coli (BW25113) cultures were prepared in 150 mL of Lysogeny Broth (LB; 10 g/L tryptone, 5 g/L yeast extract and 10 g/L NaCl, Melford) with shaking at 200 rpm and incubation at 37 °C overnight (drug dosage during experiments was typically performed around 19–20 h after starting the culture). Prior to seeding in the microfluidic chip, the OD (optical density) of the culture was measured, the cells spun down at 3220g for 5 min and the supernatant filtered twice (0.22 µm, Millipore); this twice filtered supernatant is hereafter referred to as “spent LB”. All OD measurements were carried out at 600 nm. The cell pellet was resuspended in spent LB at an approximate OD of 75; this concentrated stationary phase culture was used when seeding the microfluidic chip with bacteria. Note, the OD of 75 is a theoretical value—we measure the OD of the original stationary phase culture, and calculate the volume of spent LB that the cell pellet (post centrifugation) is to be resuspended in to achieve this OD. In practical terms, one simply needs to concentrate the culture to optimise the efficiency of cells entering the wells of the mother-machine microfluidic device within a 30 min timeframe. We also note that unlike most traditional bulk experiments, we chose to study cells initially seeded in the microfluidic device in stationary phase, in line with previous studies using this platform[30]–[32],[34]. […]

[2] = Single-GUV dye (HPTS) leakage assay, membranolytic activity; details: for vesicle survival rate: continuous flow, after 7 h, PBS pH 7.4, mean ± std. dev., 2 independent repeats; for mode of action from time distribution of single-GUV leakage events: 5 and 10 μM peptide
Text: Given this variability in the cellular responses to treatment, we hypothesized that cell-to-cell differences at the membrane level could underlie the observed heterogeneity in the bacterial responses to these novel peptides. We therefore used anionic giant unilamellar vesicles (GUVs) as highly controlled model membranes to study the membranolytic activity of the bienA and bienK peptides. The vesicles were produced in a microfluidic chip using octanol-assisted liposome assembly (OLA)[40] and made with a 3:1 mixture of 1,2-dioleoyl-sn-glycero-3-phosphocholine (DOPC) and 1,2-dioleoyl-sn-glycero-3- phospho-rac-(1-glycerol) sodium salt (DOPG) to mimic the anionic charge of bacterial membranes[27] (Fig. 4). We note that E. coli membranes are estimated to be ~ 20% PG, and that lipids of the inner membrane in particular contain a high proportion (over 95%) of phospholipids, similar to our phospholipid-based GUV models. The more complex E. coli outer membrane includes both phospholipids and glycolipids. […] In particular, in a direct comparison, AMP induced membrane permeabilisation was similar across GUVs and E. coli inner (cytoplasmic) membranes, albeit with some interesting dissimilarities in a few specific details. In our assay, the GUVs were formed encapsulating a membrane impermeable dye, HPTS (8-hydroxypyrene-1,3,6-trisulfonic acid) and immobilized using an array of physical traps; the peptide solution was then flowed over them using a continuous flow system.
Figure 4 Schematic of the integrated GUV production, trapping and perfusion platform. GUVs are produced using octanol-assisted liposome assembly at a 6-way junction as described elsewhere. Briefly, lipids dissolved in octanol (the “LO” phase) are brought together at the junction with inner aqueous (IA) and outer aqueous (OA) streams, leading to the production of GUVs hosting octanol droplets. The octanol droplets bud off the GUVs downstream. This mixture of GUVs and octanol droplets is distributed into an array of trapping chambers via a connector chip, which additionally facilitates the separation of the GUVs and octanol droplets (for details, please see Al Nahas et al. Lab Chip 2019[27]). The trapped vesicles contain the membrane-impermeable fluorescent dye HPTS. Post-trapping, the GUVs are subjected to a continuous flow of peptides, and the membranolytic efficacy of the peptides is determined by studying the leakage of the fluorescent dye from the interior of the GUVs via video fluorescence microscopy.
We have published detailed protocols for the design, fabrication and operation of the microfluidic device for immobilizing and testing thousands of individual GUVs, which can be found elsewhere[23],[27]. A detailed protocol for the octanol-assisted liposome assembly (OLA) technique of producing GUVs on chip is also available. Briefly, our platform facilitated three procedural steps integrated in a single device. First, the OLA[40] technique was used to prepare GUVs. Next, the GUVs were trapped downstream in arrays of hydrodynamic posts. Finally, the immobilized GUVs were perfused with the desired dose of a peptide. All lipids described in the text were purchased from Avanti Polar Lipids. The GUVs were prepared in sucrose solution (200 mM) with glycerol (15% v/v) in PBS (pH 7.4). The vesicles were formed encapsulating the fluorescent membrane-impermeable dye 8-hydroxypyrene-1,3,6-trisulfonic acid from Thermo Fisher (HPTS, 50 μM). The microfluidic platform was operated by two positive pressure-driven pump modules (MFCS-4C, Fluigent), and a single neMESYS syringe pump module for fluid manipulation. The trapped GUVs were continuously dosed with buffer solution loaded with 5 μM HPTS (as a tracer) and the peptide of interest at 5 or 10 μM concentrations (the stock peptide solutions were prepared in milliQ water as described previously). […]

Sequence	coefficient of variation (CV) in the cell lengths [1] [%]	Lmean 3h (mean cell length normalized to initial cell length) [1]	No. of non-dividing survivors at the end of the experiments [1]	vesicle survival rate ([2]; 5 μM peptide) [%]	vesicle survival rate ([2]; 10 μM peptide)	cell division during peptide treatment [1]	survival fraction (fraction of wells hosting dividing cells after peptide treatment and overnight LB) [1]	survival fraction (fraction of wells hosting dividing cells after peptide treatment and overnight LB) ([1]; listed as BienA9)	mode of action from time distribution of single-GUV leakage events [2]	survival fraction (fraction of wells hosting dividing cells after peptide treatment and overnight LB) ([1]; listed as A11) [%]	increase in cell length on average before cell death [1] [%]	vesicle survival rate ([2]; 10 μM peptide, listed as A11) [%]	vesicle survival rate ([2]; 10 μM peptide, listed as A10) [%]
RLLRLKLRLL [bienK10, ultrashort amphipathic helix peptide with binary encoding by arginine and leucine, lysine at the mutation position]	47	2.0 ± 0.9	7	40 ± 7	48 ± 10%								
RLLRLALRL [bienA9, ultrashort amphipathic helix peptide with binary encoding by arginine and leucine, alanine at the mutation position]	17	0.9 ± 0.2	11	41 ± 3	19.9 ± 0.5%	did not	65 ± 11%	over 50%	bimodal all-or-none mode				
RLLRLALRLLR [bienA11, ultrashort amphipathic helix peptide with binary encoding by arginine and leucine, alanine at the mutation position]	16	1.2 ± 0.2	24	1 ± 1	complete disruption of the entire vesicle population	immediately and uniformly arrested cell division	less than 5%		unimodal “graded” mode of action	0	20	0	
RLLRLKLRL [bienK9, ultrashort amphipathic helix peptide with binary encoding by arginine and leucine, lysine at the mutation position]	44	2.0 ± 0.9	13	41 ± 20	47 ± 7%								
RLLRLALRLL [bienA10, ultrashort amphipathic helix peptide with binary encoding by arginine and leucine, alanine at the mutation position]	16	1.2 ± 0.2	6	12 ± 2	complete disruption of the entire vesicle population	immediately and uniformly arrested cell division	less than 5%		unimodal “graded” mode of action		20		0
RLLRLKLRLLR [bienK11, ultrashort amphipathic helix peptide with binary encoding by arginine and leucine, lysine at the mutation position]	48	1.8 ± 0.9	1	70 ± 13	78 ± 4%		31 ± 18%						
